The results in this text go back to patent publication US8314098B2, “Pyrazolo-pyrimidine compounds” (Ajinomoto Co., Inc., priority 2008, dated 2012).

Each structure is given as a SMILES string.

Assay [1] has as its system IL-12p70 (the complex of IL-12p35 and p40). In words: IL-12p70 production inhibition in macrophages derived from mouse abdomen (IFN-γ/SAC stimulation, ELISA). It is filed as cell-based. The conditions noted are these: Macrophage; mouse (Balb/c) abdominal macrophages, 100 ng/mL mouse IFN-γ + 0.05% SAC, overnight; TFA salts tested where prepared as such; read-out: IL-12p70-Inhibitory Activity IC50. An outline of the steps: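 Thioglycolate-elicited adherent peritoneal macrophages from female Balb/c mice were collected 5–6 days after dosing. Cells were stimulated overnight with 100 ng/mL mouse IFN-γ plus 0.05% (v/v) killed S. aureus Cowan I, with compound present. IL-12p70, IL-12p40 and TNF-α in supernatants were measured by ELISA and IC50s derived, with cell survival also checked.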

A further assay concerns TNF-α. In words: TNF-α production inhibition in macrophages derived from mouse abdomen (IFN-γ/SAC stimulation, ELISA). It is filed as cell-based. The conditions noted are these: Macrophage; mouse (Balb/c) abdominal macrophages, 100 ng/mL mouse IFN-γ + 0.05% SAC, overnight; TFA salts tested where prepared as such; read-out: TNF-α-Inhibitory Activity IC50. Here is the method: (§1) One milliliter each of a 3% (w/v) thioglycolate solution was intraperitoneally administered to mice (female Balb/c mice), the abdominal cells of each mouse were recovered after 5 or 6 days from the administration of the thioglycolate solution and the adhesive cells were collected and used in the exaluation procedures. To a culture medium containing such adhesive cells, there were added 100 ng/mL of mouse interferon-γ and a 0.05% (v/v) liquid containing killed cells derived from Staphylococcus aureus Cowan I strain (SAC) and a candidate compound and then the mixture was cultivated overnight. After the completion of the cultivation, the survival ratios were determined, there were quantitatively determined the quantities of IL-12p70 (the complex of IL-12p35 and p40) and IL-12p40 or TNF-α according to the ELISA assays while making use of the recovered supernatant of the culture medium and the 50% production-inhibitory concentration (IC50) was calculated for each case (see Table 1 and Tables 1-9 for IL-12p70 and TNF-α and Tables 1 to 10 for IL-12p40).

For the next assay, the system named is IL-12p40. In words: IL-12p40 production inhibition in macrophages derived from mouse abdomen (IFN-γ/SAC stimulation, ELISA). It is filed as cell-based. The conditions noted are these: Macrophage; mouse (Balb/c) abdominal macrophages, 100 ng/mL mouse IFN-γ + 0.05% SAC, overnight. Here is the method:
as §1

Assay [2] has as its system IL-12p70 (the complex of IL-12p35 and p40). In words: IL-12p70 production inhibition in whole blood of mouse (IFN-γ/SAC stimulation, ELISA). It is filed as cell-based. The conditions noted are these: mouse (Balb/c) whole blood, EDTA, 100 ng/mL mouse IFN-γ + 1.25% SAC, overnight; TFA salts tested where prepared as such. On the procedure:
The blood was recovered from the mice (female Balb/c mice) (containing added EDTA) and it was used for the evaluation. To a cell culture medium, there were added 100 ng/mL of mouse interferon-γ, 1.25% (v/v) of a liquid containing killed cells derived from Staphylococcus aureus Cowan I strain (SAC) and a candidate compound, the resulting mixture was diluted to a volume equivalent to the blood and then the diluted medium was cultivated overnight. After the completion of the cultivation, the amount of IL-12p70 (the complex of IL-12p35 and p40) was quantitatively determined according to the ELISA assays while making use of the recovered supernatant of the culture medium and the 50% production-inhibitory concentrations (IC50) were calculated for Compounds 38, 80, 82, 83, 84, 85, 87, 90 and 91. (see Table 3).

Another assay concerns mouse enteritis model. In words: Inflammation-inhibitory action in mouse enteritis model (immigration of IL-10-/- cells), weight of large intestine. It is filed as in vivo. An excerpt: The method for establishing the mouse enteritis model by the immigration of IL-10−/−cells is, for instance, disclosed in Gastroenterology. 2009 February; 136(2): 564-74.e2. Epub 2008 Oct. 7.
The following method was used for the determination of the weight of intestinal tract as an indication of the drug efficacy: On the final day of the autopsy, the large intestine extending from the anus to immediately before the blind gut was surgically excised, the contents of the intestinal tract were washed away with physiological saline, the moisture adhered thereto was roughly removed and then the weight thereof was determined.
The inflammation-inhibitory effect of Compound 1 on the mouse enteritis model was evaluated using this evaluation system and the results obtained were plotted on FIG. 1.

For `Cc1cccc(/C=N/Nc2cc(N3CCOCC3)n3nccc3n2)c1` [Compound 9, N-(3-methyl-benzylidene)-N′-(7-morpholin-4-yl-pyrazolo-[1,5-a]pyrimidin-5-yl)-hydrazine], the figures for the IC50 (in assay [1]; in the assay on TNF-α; with IL-12p40) were 0.141 µM, greater than 10 µM and 0.137 µM, respectively.
Consider `Cc1cccc(/C=N/Nc2cc(N3CCOCC3)n3nc(-c4cccnc4)cc3n2)c1` [Compound 38, N-(3-methyl-benzylidene)-N′-(7-morpholin-4-yl-2-pyridin-3-yl-pyrazolo[1,5-a]pyrimidin-5-yl)-hydrazine], for which the half-inhibitory concentration (IC50) in assay [1] was 0.011 µM; in the assay with TNF-α, greater than 10 µM; in assay [2], 2.7 µM.
The like results for `Cc1cc2nc(N/N=C/c3c[nH]c4ccccc34)cc(N3CCOCC3)n2n1` [Compound 80, N-(1H-indol-3-yl-methylidene)-N′-(2-methyl-7-morpholin-4-yl-pyrazolo[1,5-a]pyrimidin-5-yl)-hydrazine] were, in that order, 0.16 µM, greater than 10 µM and 4.9 µM.
The like results for `C(=N\Nc1cc(N2CCOCC2)n2nc(-c3cccnc3)cc2n1)/c1c[nH]c2ccccc12` [Compound 82, N-(1H-indol-3-yl-methylidene)-N′-(7-morpholin-4-yl-2-pyridin-3-yl-pyrazolo[1,5-a]pyrimidin-5-yl)-hydrazine] were, in that order, 0.0041 µM, greater than 10 µM and 3.2 µM.
Regarding `Cc1cccc(/C=N/Nc2cc(N3CCOCC3)n3nc(-c4ccncc4)cc3n2)c1` [Compound 83, N-(3-methyl-benzylidene)-N′-(7-morpholin-4-yl-2-pyridin-4-yl-pyrazolo[1,5-a]pyrimidin-5-yl)-hydrazine], the concentration for half-maximal inhibition (IC50) in assay [1] is 0.0084 µM; with TNF-α, greater than 10 µM; in the assay with IL-12p40, 0.0113 µM; in assay [2], 0.88 µM. Besides, the “control effect on weight of the large intestine” value in the assay with mouse enteritis model (mouse enteritis model, 30 mg/kg once a day) is given as “significant control effect”. For the same compound, the “weight of the large intestine increased due to the immigration of IL-10-/- cells” value in the assay on mouse enteritis model (mouse enteritis model, 3, 10, 30 mg/kg, FIG. 1) is “controlled in a dose of Compound 83-dependent manner”.
Turning to `C(=N\Nc1cc(N2CCOCC2)n2nc(-c3ccncc3)cc2n1)/c1c[nH]c2ccccc12` [Compound 84, N-(1H-indol-3-yl-methylidene)-N′-(7-morpholin-4-yl-2-pyridin-4-yl-pyrazolo[1,5-a]pyrimidin-5-yl)-hydrazine], the results for the concentration for half-maximal inhibition (IC50) (in assay [1]; in the assay on TNF-α; in assay [2]) were 0.0032 µM, greater than 10 µM and 2.3 µM, respectively.
Take `Cc1cccc(/C=N/Nc2cc(N3CCOCC3)n3nc(-c4ccc(N5CCOCC5)nc4)cc3n2)c1` [Compound 85, N-(3-methyl-benzylidene)-N′-[7-morpholin-4-yl-2-(6-morpholin-4-yl-pyridin-3-yl)-pyrazolo[1,5-a]pyrimidin-5-yl]-hydrazine]: the concentration for half-maximal inhibition (IC50) in assay [1] is 0.0032 µM; in the assay on TNF-α, greater than 10 µM; in assay [2], 4.2 µM.
Take `CCc1cccc(/C=N/Nc2cc(N3CCOCC3)n3nc(-c4cnccn4)cc3n2)c1` [Compound 116, N-(3-ethyl-benzylidene)-N-(7-morpholin-4-yl-2-pyrazin-2-yl-pyrazolo[1,5-a]pyrimidin-5-yl)-hydrazine]: the figures for the IC50 in assay [1] and in assay [2] were 0.049 µM and 3.8 µM, respectively.
As for `C(=N\Nc1cc(N2CCOCC2)n2nc(-c3ccncc3)cc2n1)/c1ccc2cc[nH]c2c1` [Compound 117, N-(1H-indol-6-yl-methylidene)-N′-(7-morpholin-4-yl-2-pyridin-4-yl-pyrazolo[1,5-a]pyrimidin-5-yl)-hydrazine], the concentration for half-maximal inhibition (IC50) came to 0.056 µM in assay [1], 0.0978 µM in the assay on IL-12p40 and 0.28 µM in assay [2].
`CCc1cccc(/C=N/Nc2cc(N3CCOCC3)n3nc(-c4ccncc4)cc3n2)c1` [Compound 118, N-(3-ethyl-benzylidene)-N-(7-morpholin-4-yl-2-pyridin-4-yl-pyrazolo[1,5-a]pyrimidin-5-yl)-hydrazine]: the IC50 in assay [1] worked out at 0.029 µM; in assay [2], 0.64 µM.
As for `Cc1cccc(/C=N/Nc2cc(N3CCOCC3)n3nc(-c4ccncn4)cc3n2)c1` [Compound 119, N-(3-methyl-benzylidene)-N-(7-morpholin-4-yl-2-pyrimidin-4-yl-pyrazolo[1,5-a]pyrimidin-5-yl)-hydrazine], the IC50 in assay [1] worked out at 0.047 µM; in the assay on IL-12p40, 0.07 µM; in assay [2] it was 1 µM.
As for `Cc1cccc(/C=N/Nc2cc(N3CC4C[C@H]3CO4)n3nc(-c4ccncc4)cc3n2)c1` [Compound 121, N-(3-methyl-benzylidene)-N′-[7-(2-oxo-5-azabicyclo-[2.2.1]hept-5-yl)-2-pyridin-4-yl-pyrazolo[1,5-a]pyrimidin-5-yl]-hydrazine], the half-inhibitory concentration (IC50) in assay [1] was found to be 0.079 µM; with IL-12p40, 0.15 µM; in assay [2], 0.84 µM.
Take `C(=N\Nc1cc(N2CCOCC2)n2nc(-c3ccncc3)cc2n1)/c1ccnc2ccccc12` [Compound 122, N-(7-morpholin-4-yl-2-pyridin-4-yl-pyrazolo[1,5-a]-pyrimidin-5-yl)-N′-quinolin-4-yl-methylidene-hydrazine]: the IC50 worked out at 0.0056 µM in assay [1] and 2.4 µM in assay [2].
As for `Cc1cccc(/C=N/Nc2cc(N3CC4COCC4C3)n3nc(-c4ccncc4)cc3n2)c1` (stereo not drawn) [Compound 123, N-(3-methyl-benzylidene)-N′-[2-pyridin-4-yl-7-(tetrahydro-furo[3,4-c]pyrrol-5-yl)-pyrazolo[1,5-a]pyrimidin-5-yl]-hydrazine], the results for the IC50 in assay [1] and in assay [2] were 0.3 µM and 0.44 µM, respectively.
Taken in the same sequence, the figures for `C(=N\Nc1cc(N2CCOCC2)n2nc(-c3ccncc3)cc2n1)/c1c[nH]c2ncccc12` [Compound 126, N-(7-morpholin-4-yl-2-pyridin-4-yl-pyrazolo[1,5-a]-pyrimidin-5-yl)-N′-(1H-pyrrolo[2,3-b]pyridin-3-yl-methylidene)-hydrazine] were 0.11 µM and 0.76 µM.
The like results for `C(=N\Nc1cc(N2CCOCC2)n2nc(N3CCOCC3)cc2n1)/c1c[nH]c2ccccc12` [Compound 128, N-(1H-indol-3-yl-methylidene)-N-(2,7-di-morpholin-4-yl-pyrazolo[1,5-a]pyrimidin-5-yl)-hydrazine] were, in that order, 0.14 µM and 4.6 µM.
